Assay results reported in PubChem BioAssay (NCI).
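Cultured in 96-well plates, cells were exposed to test compound for 48 hours across five concentrations. GI50 is the concentration that inhibits growth by half. The concentration for full growth arrest is given as TGI.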

Experiments:
Experiment in all cases: inhibition of tumour cell growth, NCI panel, 48 h
[1] = test system: OVCAR-8 ovarian
[2] = test system: BT-549 breast
[3] = test system: CAKI-1 renal
[4] = test system: RXF 393 renal
[5] = test system: COLO 205 colon
[6] = test system: NCI/ADR-RES ovarian
[7] = test system: SR leukemia
[8] = test system: K-562 leukemia
[9] = test system: CCRF-CEM leukemia
[10] = test system: SK-MEL-2 melanoma
[11] = test system: M14 melanoma
[12] = test system: HCT-15 colon
[13] = test system: OVCAR-5 ovarian
[14] = test system: U251 CNS
[15] = test system: IGROV1 ovarian
[16] = test system: UACC-62 melanoma
[17] = test system: NCI-H226 lung
[18] = test system: SF-539 CNS
[19] = test system: NCI-H460 lung
[20] = test system: EKVX NSCLC
[21] = test system: NCI-H522 lung
[22] = test system: DU-145 prostate
[23] = test system: T-47D breast
[24] = test system: SNB-19 CNS
[25] = test system: HOP-62 NSCLC
[26] = test system: PC-3 prostate
[27] = test system: RPMI-8226 leukemia
[28] = test system: A498 renal
[29] = test system: ACHN renal
[30] = test system: MDA-MB-231 breast
[31] = test system: A549 NSCLC
[32] = test system: HCC-2998 colon
[33] = test system: HS 578T breast
[34] = test system: SK-OV-3 ovarian
[35] = test system: NCI-H23 lung
[36] = test system: 786-0 renal
[37] = test system: KM12 colon
[38] = test system: MCF7 breast
[39] = test system: SK-MEL-5 melanoma
[40] = test system: MDA-MB-435
[41] = test system: OVCAR-3 ovarian
[42] = test system: UO-31 renal
[43] = test system: LOX IMVI melanoma
[44] = test system: SF-295 CNS
[45] = test system: MOLT-4 leukemia
[46] = test system: SW-620 colon
[47] = test system: SN12C renal
[48] = test system: UACC-257 melanoma
[49] = test system: HCT-116 colon
[50] = test system: OVCAR-4 ovarian
[51] = test system: TK-10 renal
[52] = test system: MALME-3M melanoma
[53] = test system: SNB-75 CNS
[54] = test system: SK-MEL-28 melanoma
[55] = test system: SF-268 CNS
[56] = test system: HT29 colon
[57] = test system: HOP-92 NSCLC
[58] = test system: HL-60(TB) leukemia

## FC(F)(F)c1cccc(-c2nn3ncccc3c2-c2ccnc(Nc3ccc4c(c3)OCCO4)n2)c1
[1]
  GI50: 10.6 µM
  TGI: > 25 µM
[2]
  GI50: 16.4 µM
  TGI: > 25 µM
[3]
  GI50: 7.66 µM
  TGI: > 25 µM
[4]
  GI50: 6.83 µM
  TGI: > 25 µM
[5]
  GI50: 14.1 µM
  TGI: > 25 µM
[6]
  GI50: 8.96 µM
  TGI: > 25 µM
[7]
  GI50: 10.4 µM
  TGI: > 25 µM
[8]
  GI50: 8.75 µM
  TGI: > 25 µM
[9]
  GI50: 0.511 µM
  TGI: > 25 µM
[10]
  GI50: > 25 µM
  TGI: > 25 µM
[11]
  GI50: 17.6 µM
  TGI: > 25 µM
[12]
  GI50: 6.59 µM
  TGI: > 25 µM
[13]
  GI50: > 25 µM
  TGI: > 25 µM
[14]
  GI50: 19.5 µM
  TGI: > 25 µM
[15]
  GI50: 5.38 µM
  TGI: > 22.2 µM
[16]
  GI50: 15 µM
  TGI: > 25 µM
[17]
  GI50: 14.2 µM
  TGI: > 25 µM
[18]
  GI50: > 25 µM
  TGI: > 25 µM
[19]
  GI50: 11.1 µM
  TGI: > 25 µM
[20]
  GI50: 13.9 µM
  TGI: > 25 µM
[21]
  GI50: 14 µM
  TGI: > 25 µM
[22]
  GI50: 19.2 µM
  TGI: > 25 µM
[23]
  GI50: 7.37 µM
  TGI: > 25 µM
[24]
  GI50: > 25 µM
  TGI: > 25 µM
[25]
  GI50: > 25 µM
  TGI: > 25 µM
[26]
  GI50: 10.5 µM
  TGI: > 25 µM
[27]
  GI50: 7.88 µM
  TGI: > 25 µM
[28]
  GI50: 9.59 µM
  TGI: > 25 µM
[29]
  GI50: 6.42 µM
  TGI: > 25 µM
[30]
  GI50: 9.02 µM
  TGI: > 25 µM
[31]
  GI50: 12.8 µM
  TGI: > 25 µM
[32]
  GI50: 13 µM
  TGI: > 25 µM
[33]
  GI50: 16.4 µM
  TGI: > 25 µM
[34]
  GI50: 8.99 µM
  TGI: > 25 µM
[35]
  GI50: 14.8 µM
  TGI: > 25 µM
[36]
  GI50: 8.35 µM
  TGI: > 25 µM
[37]
  GI50: 14.1 µM
  TGI: > 25 µM
[38]
  GI50: 14.4 µM
  TGI: > 25 µM
[39]
  GI50: 7.87 µM
  TGI: > 25 µM
[40]
  GI50: 13.1 µM
  TGI: > 25 µM
[41]
  GI50: 13.7 µM
  TGI: > 25 µM
[42]
  GI50: 3.68 µM
  TGI: > 25 µM
[43]
  GI50: 10 µM
  TGI: > 25 µM
[44]
  GI50: 18.2 µM
  TGI: > 25 µM
[45]
  GI50: 11.8 µM
  TGI: > 25 µM
[46]
  GI50: 9.68 µM
  TGI: > 25 µM
[47]
  GI50: 11.7 µM
  TGI: > 25 µM
[48]
  GI50: 9.5 µM
  TGI: > 25 µM
[49]
  GI50: 9.75 µM
  TGI: > 25 µM
[50]
  GI50: 10.3 µM
  TGI: > 25 µM
[51]
  GI50: 8.49 µM
  TGI: > 25 µM
[52]
  GI50: > 25 µM
  TGI: > 25 µM
[53]
  GI50: > 18.6 µM
  TGI: > 25 µM
[54]
  GI50: > 25 µM
  TGI: > 25 µM
[55]
  GI50: 19.4 µM
  TGI: > 25 µM
[56]
  GI50: 7.32 µM
  TGI: > 25 µM
[57]
  GI50: 5.52 µM
  TGI: > 25 µM
[58]
  GI50: 11.9 µM
  TGI: > 25 µM
